According to patent US20160194359A1, “CELL-REACTIVE, LONG-ACTING, OR TARGETED COMPSTATIN ANALOGS AND RELATED COMPOSITIONS AND METHODS” (APELLIS PHARMACEUTICALS, INC., priority 2012, published 2016):
Each block holds one molecule with its values, some of them ahead of it. Non-standard residues stand in square brackets, D forms with d. Trp(6-F) = N[C@@H](Cc1c[nH]c2cc(F)ccc12)C(=O)O; Bpa = N[C@@H](Cc1ccc(C(=O)c2ccccc2)cc1)C(=O)O; 1Nal = N[C@@H](Cc1cccc2ccccc12)C(=O)O; 2Nal = N[C@@H](Cc1ccc2ccccc2c1)C(=O)O

Tests used:
complement activation = conditions: relative to compstatin amidated at the C-terminus; published data; cited from earlier work
[1] = previous study of CA28 administered intravenously (historical data); format: in vivo, Cynomolgus monkeys; conditions: for Serum concentration: CA28 (IV) 200 mg/kg, unit not in table
Excerpt: Average values and standard deviations are readily calculated. There was notable consistency between animals.
The data points represent all PEGylated CA28 compound detected.

[2] = target: T1, complement component C3 (human) (human, UniProt P01024 23-1663); test: cell-based or functional assay
[3] = target: T1, complement component C3 (human); test: cell-based or functional assay; remark: listed apart in the source
[4] = target: T1, complement component C3 (human); test: cell-based or functional assay; remark: listed apart in the source

Molecule: Ac-ICV(5fW)QDWGAHRCT-CONH2 [Ac-V4(5fW)/H9A]
Activity over compstatin (complement activation): 31 × more

Molecule: Ac-ICVDhtQDWGAHRCT-COOH [Ac-V4Dht/H9A-OH]
Activity over compstatin (complement activation): 5 × more

Molecule: Ac-ICV(Bpa)QDWGAHRCT-COOH (Ac-ICV[Bpa]QDWGAHRCT-OH; not fully specified (bridges); printed as Ac-ICV(Bpa)QDWGAHRCT-COOH; cysteine pairing not given here) [Ac-V4(Bpa)/H9A-OH]
Activity over compstatin (complement activation): 49 × more

Serum concentration ([1]; time 0.02 days, historical data): 34 | Serum concentration ([1]; time 0.042 days, historical data): 17 | Serum concentration ([1]; time 0.167 days, historical data): 9 | Serum concentration ([1]; time 0.333 days, historical data): 5 | Serum concentration ([1]; time 1 day, historical data): 1.5 | level at 4.008 h ([1]; cynomolgus monkey, serum, iv, 200 mg/kg, read-out: Serum Concentration): 9000 ng/mL | level at 0.48 h ([1]; cynomolgus monkey, serum, IV 200 mg/kg, time 0.02 days, historical data, HPLC, read-out: Serum Concentration): 34000 ng/mL | level at 1.008 h ([1]; cynomolgus monkey, serum, IV 200 mg/kg, time 0.042 days, historical data, HPLC, read-out: Serum Concentration): 17000 ng/mL | level at 7.992 h ([1]; cynomolgus monkey, serum, IV 200 mg/kg, time 0.333 days, historical data, HPLC, read-out: Serum Concentration): 5000 ng/mL | level at 24 h ([1]; cynomolgus monkey, serum, IV 200 mg/kg, time 1 day, historical data, HPLC, read-out: Serum Concentration): 1500 ng/mL
Molecule: CC[C@H](C)[C@H](NC(C)=O)C(=O)N[C@H]1CSSC[C@@H](C(=O)N[C@H](C(N)=O)[C@@H](C)O)NC(=O)[C@H](CCCNC(=N)N)NC(=O)[C@H](Cc2cnc[nH]2)NC(=O)[C@H](C)NC(=O)CNC(=O)[C@H](Cc2c[nH]c3ccccc23)NC(=O)[C@H](CC(=O)O)NC(=O)[C@H](CCC(N)=O)NC(=O)[C@H](Cc2cn(C)c3ccccc23)NC(=O)[C@H](C(C)C)NC1=O [CA28]

Molecule: Ac-ICV(Bpa)QDWGAHRCT-CONH2 (Ac-ICV[Bpa]QDWGAHRCT-NH2; not fully specified (bridges); printed as Ac-ICV(Bpa)QDWGAHRCT-CONH2; cysteine pairing not given here) [Ac-V4(Bpa)/H9A]
Activity over compstatin (complement activation): 86 × more

Molecule: Ac-ICVWQD(5fW)GAHRCT-CONH2 [Ac-V4W/W7(5fW)/H9A]
Activity over compstatin (complement activation): 121 × more

Molecule: Ac-ICV(2-Nal)QDWGAHRCT-COOH (Ac-ICV[2Nal]QDWGAHRCT-OH; cysteine pairing not given here) [Ac V4(2-Nal)/H9A-OH]
Activity over compstatin (complement activation): 38 × more

Molecule: Ac-ICV(1-Nal)QDWGAHRCT-COOH (Ac-ICV[1Nal]QDWGAHRCT-OH; cysteine pairing not given here) [Ac V4(1-Nal)/H9A-OH]
Activity over compstatin (complement activation): 30 × more

Molecule: Ac-ICVWQDWGAHRCdT-COOH [Ac-V4W/H9A/T13dT-OH]
Activity over compstatin (complement activation): 55 × more

Molecule: H-GICV(6fW)QD(6fW)GAHRCTN-COON (H-GICV[Trp(6-F)]QD[Trp(6-F)]GAHRCTN-OH; not fully specified (bridges); cysteine pairing not given here) [+G/V4(6fW)/W7(6fW)H9A+N-OH]
Activity over compstatin (complement activation): 126 × more

Molecule: Ac-ICV(2-IgI)QDWGAHRCT-CONH2 (Ac-ICV[2‑IgI]QDWGAHRCT-NH2; cysteine pairing not given here) [Ac-V42IgI/H9A]
Activity over compstatin (complement activation): 39 × more

Molecule: Ac-ICVVQDWGHHRCT-CONH2 [Ac-compstatin]
Activity over compstatin (complement activation): 3 × more

Molecule: Ac-ICV(5-methyl-W)QDWGAHRCT-CONH2 [Ac-V4(5-MeW)/H9A]
Activity over compstatin (complement activation): 67 × more

Molecule: Ac-ICVYQDWGAHRCT-CONH2 [Ac-V4Y/H9A]
Activity over compstatin (complement activation): 14 × more

Molecule: Ac-ICV(2-IgI)QDWGAHRCT-COOH (Ac-ICV[2‑IgI]QDWGAHRCT-OH; cysteine pairing not given here) [Ac-V42IgI/H9A-OH]
Activity over compstatin (complement activation): 37 × more

Molecule: Ac-ICV(2-Nal)QDWGAHRCT-CONH2 (Ac-ICV[2Nal]QDWGAHRCT-NH2; cysteine pairing not given here) [Ac-V4(2-Nal)/H9A]
Activity over compstatin (complement activation): 99 × more

Molecule: Ac-ICVWQDWGAHRCT-CONH2 [Ac-V4W/H9A]
Activity over compstatin (complement activation): 45 × more

% Parent in Q1 (Type III cells with high C3d deposition); modified Ham's assay, 50 ug/ml [2]: 0.01% | % Parent in Q2 (Type I and II cells with high C3d deposition); modified Ham's assay, 50 ug/ml [2]: 0.01% | % Parent in Q3 (Type III cells without significant C3d deposition); modified Ham's assay, 50 ug/ml [2]: 61.5% | % Parent in Q4 (Type I and II cells without significant C3d deposition); modified Ham's assay, 50 ug/ml [2]: 38.5%
B1: CA28-2GS-BF (bifunctionalized PEG-based compstatin analog, GS type) (peptide)
peptide: ICVWQDWGAHRCTK
modifications: N-terminal acetyl; 1-methyl-tryptophan at position 4; disulfide Cys2-Cys12; AEEAc linker after Thr13; Lys side chain coupled to one end of a bifunctional linear 40 kD PEG (glutaryl, GS type); C-terminal amide

IC50 (read off the curve); classical pathway complement activation (C3b deposition ELISA, human plasma) [3]: ~0.7 µM
B2: CA28-AEEAc-Lys(mPEG40K-carbonyl) (peptide)
peptide: ICVWQDWGAHRCTK
modifications: not fully specified; N-terminal acetyl; 1-methyl-tryptophan at position 4; disulfide Cys2-Cys12; AEEAc linker after Thr13; linear 40 kD mPEG (NOF ME-400TS, carbonyl) on the Lys side chain; C-terminal amide

IC50, classical complement inhibition assay (C3b deposition ELISA) [4]: 1.29 µM | IC50 (read off the curve); classical pathway complement activation (C3b deposition ELISA, human plasma) [3]: ~0.7 µM
B3: CA28-AEEAc-Lys-(PEG40k) (peptide)
peptide: ICVWQDWGAHRCTK
modifications: N-terminal acetyl; 1-methyl-tryptophan at position 4; disulfide Cys2-Cys12; AEEAc linker after Thr13; linear 40 kD mPEG (NOF ME-400GS, glutaryl) on the Lys side chain; C-terminal amide

IC50 (read off the curve); classical pathway complement activation (C3b deposition ELISA, human plasma) [3]: ~0.7 µM
B4: CA28-AEEAc-Lys(mPEG40K-hexanoyl) (peptide)
peptide: ICVWQDWGAHRCTK
modifications: N-terminal acetyl; 1-methyl-tryptophan at position 4; disulfide Cys2-Cys12; AEEAc linker after Thr13; linear 40 kD mPEG (NOF ME-400HS, hexanoyl) on the Lys side chain; C-terminal amide

IC50, classical complement inhibition assay (C3b deposition ELISA) [4]: 1.26 µM
B5: CA28-AEEAc-Lys-(PEG30k) (peptide)
peptide: ICVWQDWGAHRCTK
modifications: N-terminal acetyl; 1-methyl-tryptophan at position 4; disulfide Cys2-Cys12; AEEAc (8-amino-3,6-dioxaoctanoyl) linker after Thr13; linear 30 kD mPEG (NOF ME-300GS) on the Lys side chain; C-terminal amide

IC50 (read off the curve); classical pathway complement activation (C3b deposition ELISA, human plasma) [3]: ~0.7 µM
B6: CA28-AEEAc-Lys(mPEG40K-succinyl) (peptide)
peptide: ICVWQDWGAHRCTK
modifications: N-terminal acetyl; 1-methyl-tryptophan at position 4; disulfide Cys2-Cys12; AEEAc linker after Thr13; linear 40 kD mPEG (NOF ME-400CS, succinyl) on the Lys side chain; C-terminal amide
